Where “and” joins values, the source holds several entries; their conditions need not be identical. Identical values can stand only once.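 Interpolation was linear, between the two tested concentrations surrounding the appropriate level; five concentrations were tested over 48 hours in 96-well plates. The concentration for 50% growth inhibition is given as GI50. The concentration for full growth arrest is given as TGI.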
Columns and labels:
Assay in all cases: growth of human tumour cells (NCI), 48 h
A498 renal = test system: A498 renal
IGROV1 ovarian = test system: IGROV1 ovarian
786-0 renal = test system: 786-0 renal
SK-OV-3 ovarian = test system: SK-OV-3 ovarian
CAKI-1 renal = test system: CAKI-1 renal
HOP-92 NSCLC = test system: HOP-92 NSCLC
TK-10 renal = test system: TK-10 renal
SR leukemia = test system: SR leukemia
SK-MEL-2 melanoma = test system: SK-MEL-2 melanoma
ACHN renal = test system: ACHN renal

Row | Structure (SMILES) | TGI (A498 renal) [µM] | TGI (IGROV1 ovarian) | TGI (786-0 renal) | TGI (SK-OV-3 ovarian) [µM] | TGI (CAKI-1 renal) [µM] | TGI (HOP-92 NSCLC) | TGI (TK-10 renal) [µM] | TGI (SR leukemia) [µM] | TGI (SK-MEL-2 melanoma) [µM] | GI50 (IGROV1 ovarian) | GI50 (786-0 renal) | TGI (ACHN renal) | GI50 (CAKI-1 renal) | GI50 (TK-10 renal) | GI50 (SK-MEL-2 melanoma) | GI50 (A498 renal) [µM] | GI50 (ACHN renal) [µM] | GI50 (HOP-92 NSCLC) [µM] | GI50 (SR leukemia) [µM] | GI50 (SK-OV-3 ovarian) [µM]
1 | COc1cc2ccccc2c2cc([N+](=O)[O-])oc12 | 0.342 | 7.19 µM | 7.49 µM | > 71.7 | > 100 | 4.54 µM | 5.44 | 1.92 | 0.452 | – | – | – | – | – | – | – | – | – | – | –
2 | COC(=O)CCC(C)[C@H]1CCC2C3C(C[C@H](OC(C)=O)[C@@]21C)[C@@]1(C)CCC2(C[C@H]1C[C@H]3OC(C)=O)OOC1(CCC(C)CC1)OO2 (some centres undefined) | > 100 | 16.4 µM and 27.3 µM | > 100 µM and 95.9 µM | > 100 | > 100 | 7.63 µM and 69.9 µM | > 100 | > 100 | > 100 | 3.82 µM and 10.1 µM | 9.1 µM and 27.6 µM | 61.7 µM and > 100 µM | 5.26 µM and 15.8 µM | 10.8 µM and > 100 µM | 21.9 µM and 64.9 µM | – | – | – | – | –
3 | C=CCC1C(=O)C(C(=O)OC)N2CCc3c([nH]c4ccccc34)C12 (centres undefined) | > 100 | > 100 µM | > 100 µM | > 100 | > 100 | > 100 µM | > 100 | > 100 | > 100 | – | – | – | – | – | – | – | – | – | – | –
4 | Cc1cc(=O)oc2c(CN3CCCCC3)c(O)ccc12 | > 100 | > 100 µM | > 100 µM | – | > 100 | > 100 µM | > 100 | > 100 | > 100 | – | – | > 100 µM | – | – | – | – | – | – | – | –
5 | COc1ccc(-c2nn(-c3ccc(NC(=O)c4ccc(Cl)c(C(F)(F)F)c4)cc3)cc2-c2ccncc2)cc1Cl | 4.47 | > 100 µM | 0.449 µM | – | 2.08 | 21.6 µM | > 32.8 | > 100 | 1.44 | 9.68 µM | 0.187 µM | > 100 µM | 0.335 µM | 1.71 µM | 0.345 µM | 0.237 | 1.58 | 1.71 | 0.316 | –
6 | O=c1oc2cc(N=Cc3ccccc3Cl)ccc2c2ccccc12 | > 100 | > 100 µM | > 100 µM | – | > 100 | > 100 µM | – | > 100 | > 100 | – | – | > 100 µM | – | – | – | – | – | – | – | –
7 | COc1ccc(C[n+]2c3ccccc3n3c4ccc(N)cc4ccc32)c(OC)c1OC | 61.9 | 40 µM | > 100 µM | 49.2 | – | 3.77 µM | 79.4 | 19.2 | 14.8 | 4.58 µM | 34.9 µM | > 100 µM | – | 22.4 µM | 3.78 µM | 17.5 | 36.2 | 0.571 | 2.75 | 10.4
8 | [C-]#[O+].[Cl][Sn]([Cl])[Cl].[Cl][Sn]([Cl])[Cl].[Pt].c1ccc([PH+](c2ccccc2)c2ccccc2)cc1.c1ccc([PH+](c2ccccc2)c2ccccc2)cc1 | 50.1 | > 100 µM | > 100 µM | > 100 | – | 46.8 µM | 52.3 | > 100 | > 100 | 20.9 µM | 53.5 µM | > 100 µM | – | 25.5 µM | 34 µM | 18.8 | 26.4 | 17.1 | 37.7 | 48.2

Source: PubChem BioAssay (NCI)
